pIC50: −log10 of the molar value. Structures can show the parent of a compound that is named as a salt.

In the test the target is TrkA (Homo sapiens (Human), UniProt P04629). Put plainly: TrkA Omnia Assay. In kind it is biochemical. The conditions noted are these: averaged IC50; 20 nM enzyme, 500 μM ATP, 10 μM peptide substrate. Summed up: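 Continuous fluorescent kinase read-out (ex 360 nm, em 485 nm) over 70 min, with initial rates fitted to 4- or 5-parameter logistic curves for IC50. Final conditions: 500 μM ATP, 10 μM Omnia Tyr Peptide #4, 20 nM TrkA, MOPS pH 7.5 buffer with MgCl2 and Triton X-100; enzyme and compound preincubated 10 min at ambient temperature.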
Sequence of TrkA (P04629 33-796): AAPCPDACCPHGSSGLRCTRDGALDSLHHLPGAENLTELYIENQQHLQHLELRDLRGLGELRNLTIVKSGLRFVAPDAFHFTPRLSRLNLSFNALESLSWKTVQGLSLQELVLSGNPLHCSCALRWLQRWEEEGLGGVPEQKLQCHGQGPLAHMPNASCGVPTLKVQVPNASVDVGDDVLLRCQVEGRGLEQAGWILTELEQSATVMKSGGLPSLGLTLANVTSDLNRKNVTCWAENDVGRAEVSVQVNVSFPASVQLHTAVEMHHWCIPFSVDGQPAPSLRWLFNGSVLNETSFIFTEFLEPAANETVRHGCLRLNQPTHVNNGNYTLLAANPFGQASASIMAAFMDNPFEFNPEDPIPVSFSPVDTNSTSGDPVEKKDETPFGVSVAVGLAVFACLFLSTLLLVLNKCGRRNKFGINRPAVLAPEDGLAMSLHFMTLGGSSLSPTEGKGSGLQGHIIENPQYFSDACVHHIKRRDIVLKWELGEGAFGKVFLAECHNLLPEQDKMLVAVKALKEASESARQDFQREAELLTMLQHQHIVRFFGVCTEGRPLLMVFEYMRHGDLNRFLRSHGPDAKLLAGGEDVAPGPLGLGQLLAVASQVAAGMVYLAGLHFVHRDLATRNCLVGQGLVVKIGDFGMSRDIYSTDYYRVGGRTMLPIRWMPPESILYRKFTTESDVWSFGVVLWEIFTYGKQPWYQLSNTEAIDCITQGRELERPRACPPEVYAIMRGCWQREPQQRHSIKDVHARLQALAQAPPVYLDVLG

Consider `COCCN1C[C@@H](NC(=O)Nc2cc(C(C)(C)C)nn2-c2ccccc2C)[C@H](c2ccccc2)C1` (relative stereo) [Example 29, 1-(3-tert-butyl-1-o-tolyl-1H-pyrazol-5-yl)-3-(trans-1-(2-methoxyethyl)-4-phenylpyrrolidin-3-yl)urea], for which the pIC50 (usually the IC50 on a negative log10 scale, so that one unit is a factor of ten) was 5.00 to 6.00.

`COCCN1C[C@@H](NC(=O)Nc2c(C)c(=O)[nH]n2-c2ccccc2)[C@H](c2cc(F)cc(Cl)c2)C1` (relative stereo) [Example 614, 1-((trans)-4-(3-chloro-5-fluorophenyl)-1-(2-methoxyethyl)pyrrolidin-3-yl)-3-(4-methyl-5-oxo-2-phenyl-2,5-dihydro-1H-pyrazol-3-yl)urea]: the pIC50 is over 7.00.

Turning to `COCC(CO)N1C[C@@H](NC(=O)Nc2c3c(nn2-c2ccccc2)CCC3)[C@H](c2ccc(F)c(F)c2)C1` (stereo partly drawn) [Example 260, 1-((3S,4R)-4-(3,4-difluorophenyl)-1-(1-hydroxy-3-methoxypropan-2-yl)pyrrolidin-3-yl)-3-(2-phenyl-2,4,5,6-tetrahydrocyclopenta[c]pyrazol-3-yl)urea], the negative-log IC50 (pIC50) was over 7.00.

In turn, `COCCN1C[C@@H](NC(=O)Nc2c(C)c(-c3ccccc3)nn2C)[C@H](c2ccccc2)C1` [Example 54, 1-(1,4-dimethyl-3-phenyl-1H-pyrazol-5-yl)-3-((3S,4R)-1-(2-methoxy-ethyl)-4-phenylpyrrolidin-3-yl)urea] gave a pIC50 of 5.00 to 6.00.

The molecule `Cc1nn(-c2ccccc2)c(NC(=O)N[C@@H]2CN(c3cn[nH]c3)C[C@H]2c2ccc(F)c(F)c2)c1C` [Example 224, 1-((3S,4R)-4-(3,4-difluorophenyl)-1-(1H-pyrazol-4-yl)pyrrolidin-3-yl)-3-(3,4-dimethyl-1-phenyl-1H-pyrazol-5-yl)urea] showed a pIC50 of over 7.00.

Regarding `COCCN1C[C@@H](NC(=S)Nc2c(C)c(-c3ccc(=O)n(C)c3)nn2-c2ccccc2)[C@H](c2ccc(F)c(F)c2)C1` [Example 631, 1-((3S,4R)-4-(3,4-difluorophenyl)-1-(2-methoxyethyl)pyrrolidin-3-yl)-3-(4-methyl-3-(1-methyl-6-oxo-1,6-dihydropyridin-3-yl)-1-phenyl-1H-pyrazol-5-yl)thiourea], the pIC50 was over 7.00.

With `CCc1nn(-c2ccccc2)c(NC(=O)N[C@@H]2CN(CCOC)C[C@H]2c2ccc(F)c(F)c2)c1C(N)=O` [Example 621, 5-(3-((3S,4R)-4-(3,4-difluorophenyl)-1-(2-methoxyethyl)pyrrolidin-3-yl)ureido)-3-ethyl-1-phenyl-1H-pyrazole-4-carboxamide], the pIC50 is over 7.00.

Molecule `COCCN1C[C@@H](NC(=O)Nc2c(C)c(C(=O)NC(C)C)nn2-c2ccccc2)[C@H](c2ccc(F)c(F)c2)C1` [Example 462, 5-(3-((3S,4R)-4-(3,4-difluorophenyl)-1-(2-methoxyethyl)pyrrolidin-3-yl)ureido)-N-isopropyl-4-methyl-1-phenyl-1H-pyrazole-3-carboxamide] gave a pIC50 of over 7.00.

The molecule `CCOc1nn(-c2ccccc2)c(NC(=O)N[C@@H]2CN(CCOC)C[C@H]2c2ccc(F)c(F)c2)c1F` [Example 357, 1-((3S,4R)-4-(3,4-difluorophenyl)-1-(2-methoxyethyl)pyrrolidin-3-yl)-3-(3-ethoxy-4-fluoro-1-phenyl-1H-pyrazol-5-yl)urea] showed a pIC50 of over 7.00.

Take `CCOc1nn(-c2ccccc2)c(NC(=O)N[C@@H]2CN(c3ccccc3Cl)C[C@H]2c2ccccc2)c1C` [Example 238, 1-(3-ethoxy-4-methyl-1-phenyl-1H-pyrazol-5-yl)-3-((3S,4R)-1-(2-chlorophenyl)-4-phenylpyrrolidin-3-yl)urea]: the negative logarithm of the IC50 (pIC50) is 6.00 to 7.00.

Regarding `COCCN1C[C@@H](NC(=O)Nc2c(Cl)c(-c3ccccn3)nn2-c2ccccc2)[C@H](c2ccc(F)c(F)c2)C1` [Example 480, 1-(4-chloro-1-phenyl-3-(pyridin-2-yl)-1H-pyrazol-5-yl)-3-((3 S,4R)-4-(3,4-difluorophenyl)-1-(2-methoxyethyl)pyrrolidin-3-yl)urea], the pIC50 was over 7.00.

`COCCN1C[C@@H](NC(=O)Nc2c(-c3ccccc3)cnn2C)[C@H](c2ccccc2)C1` (relative stereo) [Example 31, 1-(trans-1-(2-methoxyethyl)-4-phenylpyrrolidin-3-yl)-3-(1-methyl-4-phenyl-1H-pyrazol-5-yl)urea] gave a pIC50 of 6.00 to 7.00.

`COCCN1C[C@@H](NC(=O)Nc2c(Br)c(-c3cnn(C)c3)nn2-c2ccccc2)[C@H](c2ccc(F)cc2)C1` [Example 421] gave a pIC50 of over 7.00.

For the molecule `COCCN1C[C@@H](NC(=O)Nc2c(C)c(C(N)=O)nn2-c2ccccc2)[C@H](c2ccc(F)c(F)c2)C1` [Example 463, 5-(3-((3S,4R)-4-(3,4-difluorophenyl)-1-(2-methoxyethyl)pyrrolidin-3-yl)ureido)-4-methyl-1-phenyl-1H-pyrazole-3-carboxamide], the pIC50 was over 7.00.

The molecule `COCCN1C[C@@H](NC(=O)Nc2cc(-c3cccc(C)c3)nn2C)[C@H](c2ccc(F)c(F)c2)C1` [Example 103, 1-((3S,4R)-4-(3,4-difluorophenyl)-1-(2-methoxyethyl)pyrrolidin-3-yl)-3-(1-methyl-3-m-tolyl-1H-pyrazol-5-yl) urea] showed a pIC50 of over 7.00.

The molecule `COCCN1C[C@@H](NC(=O)Nc2c(Cl)c(-c3cccnc3)nn2-c2ccccc2)[C@H](c2ccc(F)c(F)c2)C1` [Example 482, 1-(4-chloro-1-phenyl-3-(pyridin-3-yl)-1H-pyrazol-5-yl)-3-((3S,4R)-4-(3,4-difluorophenyl)-1-(2-methoxyethyl)pyrrolidin-3-yl)urea] gave a pIC50 of over 7.00.

Regarding `COCCN1C[C@@H](NC(=O)Nc2cc(C(C)(C)C#N)nn2-c2ccccc2)[C@H](c2ccc(F)c(F)c2)C1` [Example 71, 1-(3-(2-cyanopropan-2-yl)-1-phenyl-1H-pyrazol-5-yl)-3-((3S,4R)-4-(3,4-difluorophenyl)-1-(2-methoxyethyl)pyrrolidin-3-yl)urea], the pIC50 was over 7.00.

The molecule `COCCN1C[C@@H](NC(=O)Nc2c(Br)c(-c3ccccc3)nn2-c2ccccc2)[C@H](c2ccc(F)cc2)C1` [Example 428, 1-(4-bromo-1,3-diphenyl-1H-pyrazol-5-yl)-3-((3S,4R)-4-(4-fluorophenyl)-1-(2-methoxyethyl)pyrrolidin-3-yl)urea] gave a negative logarithm of the IC50 (pIC50) of over 7.00.

The molecule `COCCN1C[C@@H](NC(=O)Nc2c(C#N)c(C(F)(F)F)nn2-c2ccccc2)[C@H](c2ccc(F)c(F)c2)C1` [Example 617, 1-(4-cyano-1-phenyl-3-(trifluoromethyl)-1H-pyrazol-5-yl)-3-((3S,4R)-4-(3,4-difluorophenyl)-1-(2-methoxyethyl)pyrrolidin-3-yl)urea] gave a pIC50 of over 7.00.

For the molecule `COCCN1C[C@@H](NC(=O)Nc2c(-c3ccccc3)nn3ccccc23)[C@H](c2ccc(F)c(F)c2)C1` [Example 635, 1-((3S,4R)-4-(3,4-difluorophenyl)-1-(2-methoxyethyl)pyrrolidin-3-yl)-3-(2-phenylpyrazolo[1,5-a]pyridin-3-yl)urea], the pIC50 is over 7.00.

For the molecule `COCCN1C[C@@H](NC(=O)Nc2c(C)c(OCCN3CCNCC3)nn2-c2ccccc2)[C@H](c2ccc(F)c(F)c2)C1` [Example 538, 1-((3S,4R)-4-(3,5-difluorophenyvl)-1-(2-methoxyethyl)pyrrolidin-3-yl)-3-(4-methyl-1-phenyl-3-(2-(piperazin-1-yl)ethoxy)-1H-pyrazol-5-yl)urea trihydrochloride], the pIC50 was over 7.00.

With `COCCN1C[C@@H](NC(=O)Nc2c(C)c(-c3cnn(C)c3)nn2-c2ccccc2)[C@H](c2ccc(F)cc2)C1` [Example 441, 1-(1′,4-dimethyl-1-phenyl-1H, 1′H-[3,4′-bipyrazol]-5-yl)-3-((3S,4R)-4-(4-fluorophenyl)-1-(2-methoxyethyl)pyrrolidin-3-yl)urea], the pIC50 is over 7.00.

`COCCN1C[C@@H](NC(=O)Nc2c(C#N)c(C)nn2-c2ccccc2)[C@H](c2ccccc2)C1` (relative stereo) [Example 32, 1-(4-cyano-3-methyl-1-phenyl-1H-pyrazol-5-yl)-3-(trans-1-(2-methoxy-ethyl)-4-phenylpyrrolidin-3-yl)urea] had a pIC50 of 6.00 to 7.00.

`COCCN1C[C@@H](NC(=O)Nc2c(C)c(COC)nn2-c2ccccc2)[C@H](c2ccccc2)C1` [Example 101, 1-((3S,4R)-1-(2-methoxy-ethyl)-4-phenylpyrrolidin-3-yl)-3-(3-(methoxy-methyl)-4-methyl-1-phenyl-1H-pyrazol-5-yl) urea] gave a pIC50 of over 7.00.

Regarding `COCCN1C[C@@H](NC(=O)Nc2cn(-c3ccccc3)nc2C)[C@H](c2ccc(F)c(F)c2)C1` [Example 648, 1-((3S,4R)-4-(3,4-difluorophenyl)-1-(2-methoxyethyl)pyrrolidin-3-yl)-3-(3-methyl-1-phenyl-1H-pyrazol-4-yl)urea], the pIC50 is over 7.00.

The record behind these values is patent publication US10323022B2, “Pyrrolidinyl urea, pyrrolidinyl thiourea and pyrrolidinyl guanidine compounds as TrkA kinase inhibitors” (Array BioPharma Inc., priority 2011, dated 2019).
